According to publication PMC8624133, “10th Trends in Medical Mycology Held on 8 to 11 October 2021, Aberdeen, Scotland, Organized by the European Confederation of Medical Mycology (ECMM)” (Journal of Fungi, 2021):
Values after ≈ are worked out from the molar mass of the structure shown. Where two headings read alike, the source gives them in different places.

Assays:
C. auris = test: EUCAST and CLSI susceptibility, multicenter; format: cell-based, Candida auris; details: Candidozyma auris, seven laboratories
Experimental: (§1) Methods: We performed a multicenter study to determine the antifugal susceptibility to AmB from AmBisome (provided by Gilead) using both CLSI and EUCAST protocols. We tested this activity against the most relevant clinical fungal species.Representative isolates from different geographical regions were included in the study. Other antifungals were evaluated (fluconazole, itraconazole, voriconazole, posaconazole, caspofungin, micafungin and anidulafungin).

C. parapsilosis = test: EUCAST and CLSI susceptibility, multicenter; format: cell-based, Candida parapsilosis; details: Lodderomyces parapsilosis, seven laboratories
Experimental: as §1

A. nidulans = test: EUCAST and CLSI susceptibility, multicenter; format: cell-based; details: Aspergillus nidulans
Experimental: as §1

C. tropicalis = test: EUCAST and CLSI susceptibility, multicenter; format: cell-based; details: Candida tropicalis, seven laboratories
Experimental: as §1

Candida albicans = test: EUCAST and CLSI susceptibility, multicenter; format: cell-based; details: seven laboratories
Experimental: as §1

Aspergillus fumigatus = test: EUCAST and CLSI susceptibility, multicenter; format: cell-based
Experimental: as §1

A. flavus = test: EUCAST and CLSI susceptibility, multicenter; format: cell-based; details: Aspergillus flavus
Experimental: as §1

[1] = system: other filamentous fungi, including Talaromyces marneffei; test: EUCAST and CLSI susceptibility, multicenter; format: cell-based; details: around, read-out: GM MIC, both methods
Experimental: as §1

[2] = system: Lomentospora prolificans and Cunninghamella bertholletiae; test: EUCAST and CLSI susceptibility, multicenter; format: cell-based
Experimental: as §1

A. terreus = test: EUCAST and CLSI susceptibility, multicenter; format: cell-based; details: Aspergillus terreus
Experimental: as §1

A. niger = test: EUCAST and CLSI susceptibility, multicenter; format: cell-based; details: Aspergillus niger
Experimental: as §1

C. glabrata = test: EUCAST and CLSI susceptibility, multicenter; format: cell-based, Candida glabrata; details: Nakaseomyces glabratus, seven laboratories
Experimental: as §1

[3] = system: Candida isolates from animals; test: CLSI M44-A2 disk diffusion; format: cell-based, Candida spp.; details: 10 µg discs; all 10 isolates
Experimental: Methods: Swab samples were plated on Sabouraud dextrose agar (SDA) with the addition of chloramphenicol. M. pachydermatis strains were identified by conventional laboratory methods and their ability to grow on SDA without lipid supplementation. The identification of Candida isolates was based on their phenotypic characterization and molecular methods using the universal ITS-1 and ITS-4 primers for amplification of the internal transcribed spacer 1 (ITS1), ITS2 regions and the 5.8S ribosomal DNA region followed by sequence-based identification. Susceptibility of Candida isolates was determined as described by the CLSI M44-A2 method using MCZ, CTZ and ITZ discs (10 µg, Neo-Sensitabs, Rosco, Denmark). Because the standard procedure for Candida susceptibility testing cannot be applied to M. pachydermatis, recommended modified protocol was used. The results were interpreted according to manufacturer’s guidelines.

[4] = system: A. fumigatus isolates (ARAF and azole susceptible); test: Broth microdilution after EUCAST; format: cell-based; details: Aspergillus fumigatus; range, 16 ARAF and 4 azole susceptible isolates
Experimental: (§2) Materials & Methods: Olorofim activity has been analyzed at different stages (prior adhesion, 4 h, 12 h, 24 h and 48 h after inoculation) of biofilm formation of clinical ARAF strains (n = 16) as well as azole susceptible A. fumigatus isolates (n = 4) by using an XTT assay. Olorofim was applied in concentrations of a total, a half, a quarter and an eighth of the previously determined minimum inhibitory concentrations (MICs) by broth microdilution method after EUCAST.

A. fumigatus biofilm = test: Antibiofilm activity, XTT assay; format: cell-based, Aspergillus fumigatus
Experimental: as §2

dermatophyte strains = test: Terbinafine modified breakpoint method; format: cell-based
Experimental: In vitro sensitivity testing against terbinafine was carried out using a modified breakpoint method according to Yamada et al., (2017) and Ebert et al., (2020).

T. rubrum = details: eight susceptible strains; ref Arendrup et al., 2020; cited from earlier work
[5] = system: Exophiala phaeomuriformis; test: MIC, CLSI M27-A3; format: cell-based; details: read-out: MIC values
Experimental: Materials & Methods: The aviation kerosone samples came from an aviation company in Porto Alegre, state of Rio Grande do Sul, Brazil. The fungi isolation was carried out using the modified ASTM D6974-09 Standard. In this procedure, 500 mL kerosene samples were filtered, in triplicate, under aseptic conditions, under vacuum, using a 0.22 μm membrane (Millipore). After filtering, the membranes were deposited in potato dextrose agar culture medium. The plates were incubated in an oven at 30 °C for seven days. After this period, the colonies were isolated in new culture media for purification of the isolates. Molecular identification was performed through the sequencing of ITS DNA regions. The profile of sensitivity to clinical antifungals was assessed following protocols M27-A3 of the Clinical and Laboratory Standards Institute (CLSI).

T. indotineae = details: eleven susceptible strains; ref Arendrup et al., 2020; cited from earlier work
Trichophyton spp. = test: Agar-based screening method; format: cell-based; details: 0.5 McF, 5 days, 30 °C
Experimental: Inter-experimental variation was evaluated by testing 10 isolates on three different days. Single-centre validation: After determining the optimal conditions for the agar screening method, 112 molecularly identified Trichophyton spp. clinical isolates were tested.

T. mentagrophytes [6] = test: EUCAST E.DEF11.0 susceptibility
Experimental: Materials/methods: Samples from patients with clinically suspected dermatophytosis attending the outpatient Dermatology-Venereology Department of “Attikon” hospital during 2010–2019 were collected. Specimens were processed for direct microscopic examination (Blankophor in 10% KOH) and were inoculated on two plates each of Sabouraud’s dextrose agar supplemented with gentamicin + chloramphenicol and the other containing phenol red + cyclohexamide (incubation at 30 °C up to 4 weeks). Recovered isolates were identified to the genus and species level by standard phenotypic methods based on their colonial/microscopic morphology and biochemical properties (hydrolysis of urea) and were stored in 10% glycerol stocks at −70 °C.

[7] = system: T. rubrum and T. interdigitale isolates; test: CLSI M38A2 broth microdilution
[8] = system: T. rubrum and T. interdigitale; details: cited from earlier work
[9] = system: clinical Trichophyton spp. isolates; test: Checkerboard microdilution based on EUCAST; format: cell-based; details: for MIC: Trichophyton, read-out: geometric mean MIC, drug alone; for FICI of isolates exhibiting synergy / isolates with synergistic interactions: terbinafine + itraconazole
Experimental: Materials & Methods: The combination has been tested against 9 terbinafine-susceptible and 7 terbinafine-resistant clinical Trichophyton spp. isolates from India. In vitro interactions were evaluated by a microdilution checkerboard technique based on the EUCAST reference method for antifungal susceptibility testing. The mode of interaction between terbinafine and itraconazole was determined by the fractional inhibitory concentration index (FICI). The FICI was interpreted as FICI ≤ 0.5 = synergy, FICI > 0.5–4 = no interaction, and FICI > 4.0 = antagonism.

[10] = system: environmental yeasts from a lagoon; test: organism not typed; format: cell-based
T. mentagrophytes [11] = test: EUCAST E.DEF 11.0 MIC; format: cell-based; details: Trichophyton mentagrophytes
[12] = system: dermatophyte standard strains and clinical isolates; test: Broth microdilution MIC; format: cell-based, Trichophyton and Microsporum spp.; details: all tested strains
Experimental: Materials & Methods: The minimum inhibitory concentration (MIC) of honokiol was assessed by broth microdilution method against standard strains (Trichophyton rubrum ATCC 28188, Trichophyton mentagrophytes ATCC 9533), and clinical isolates (T. rubrum, T. ajelloi, Microsporum canis and M. gypseum). Evaluation of honokiol effect on ergosterol biosynthesis was assessed by high performance liquid chromatography. Checkerboard microtiter method was used to identify synergistic combinations of honokiol with terbinafine against Trichophyton rubrum ATCC 28188. The combinatorial effect was evaluated by calculating the fractional inhibitory concentration index (FICI).

[13] = system: clinical dermatophyte isolates; test: Inhibition of dermatophyte biofilm formation; format: cell-based
Experimental: Materials and Methods: The study population consisted of 50 dermatophyte isolates that were collected from 2019 to 2020 from patients referred to the two mycology laboratory of Shiraz, Iran. The isolates were identified by ITS gene region sequencing. The suspension (equivalent to 0.5 McFarland) of the isolates was used to evaluate the ability of the isolates to form biofilms and also the effect of itraconazole, terbinafine and griseofulvin at concentrations of 2–32 μg/mL on inhibiting biofilm formation. Two optical microscope and a scanning electron microscope were used to study the microscopic structure of biofilms formed on the surface of 96-well plate wells.

[14] = system: T. mentagrophytes isolates; details: cited from earlier work
CDR1 = test: Rhodamine 6G (R6G) efflux
[15] = ECMM multinational study, risk factors for CAPA; format: in vivo, human; details: critically ill COVID-19 patients in ICU, 592 patients
Excerpt: Methods: The European Confederation of Medical Mycology (ECMM) conducted a multinational study including 20 centers from nine different countries to assess epidemiology, diagnosis, risk factors, treatment and outcome of CAPA. CAPA was defined according to ECMM/ISHAM consensus definitions.

[16] = 7 terbinafine-resistant isolates
[17] = 9 terbinafine-susceptible isolates

## C[C@@H]1[C@H](O)[C@@H](C)/C=C/C=C/C=C/C=C/C=C/C=C/C=C/[C@H](O[C@@H]2O[C@H](C)[C@@H](O)[C@H](N)[C@@H]2O)C[C@@H]2O[C@](O)(C[C@@H](O)C[C@@H](O)[C@H](O)CC[C@@H](O)C[C@@H](O)CC(=O)O[C@H]1C)C[C@H](O)[C@H]2C(=O)O [AmB from AmBisome, Amphotericin B]
C. auris; read-out: GM MIC, CLSI
  MIC: 0.31 µg/mL (≈ 0.335 µM)
C. auris; read-out: GM MIC, EUCAST
  MIC: 0.46 µg/mL (≈ 0.498 µM)
C. parapsilosis; read-out: GM MIC, CLSI
  MIC: 0.38 µg/mL (≈ 0.411 µM)
C. parapsilosis; read-out: GM MIC, EUCAST
  MIC: 0.36 µg/mL (≈ 0.39 µM)
A. nidulans; read-out: GM MIC, CLSI
  MIC: 0.9 µg/mL (≈ 0.974 µM)
A. nidulans; read-out: GM MIC, EUCAST
  MIC: 1.7 µg/mL (≈ 1.84 µM)
C. tropicalis; read-out: GM MIC, CLSI
  MIC: 0.31 µg/mL (≈ 0.335 µM)
C. tropicalis; read-out: GM MIC, EUCAST
  MIC: 0.36 µg/mL (≈ 0.39 µM)
Candida albicans; read-out: GM MIC, CLSI
  MIC: 0.21 µg/mL (≈ 0.227 µM)
Candida albicans; read-out: GM MIC, EUCAST
  MIC: 0.23 µg/mL (≈ 0.249 µM)
Aspergillus fumigatus; read-out: GM MIC, CLSI
  MIC: 0.64 µg/mL (≈ 0.693 µM)
Aspergillus fumigatus; read-out: GM MIC, EUCAST
  MIC: 0.65 µg/mL (≈ 0.703 µM)
A. flavus; read-out: GM MIC, CLSI
  MIC: 1.1 µg/mL (≈ 1.19 µM)
A. flavus; read-out: GM MIC, EUCAST
  MIC: 1.7 µg/mL (≈ 1.84 µM)
[1]
  MIC: 0.2 to 0.5 µg/mL (≈ 0.216 to 0.541 µM)
[2]
  activity, in words: lowest activity
A. terreus; read-out: GM MIC, CLSI
  MIC: 1.4 µg/mL (≈ 1.52 µM)
A. terreus; read-out: GM MIC, EUCAST
  MIC: 2 µg/mL (≈ 2.16 µM)
A. niger; read-out: GM MIC, CLSI
  MIC: 0.36 µg/mL (≈ 0.39 µM)
A. niger; read-out: GM MIC, EUCAST
  MIC: 0.22 µg/mL (≈ 0.238 µM)
C. glabrata; read-out: GM MIC, CLSI
  MIC: 0.33 µg/mL (≈ 0.357 µM)
C. glabrata; read-out: GM MIC, EUCAST
  MIC: 0.34 µg/mL (≈ 0.368 µM)

## Clc1ccccc1C(c1ccccc1)(c1ccccc1)n1ccnc1 [CTZ, clotrimazole]
[3]
  susceptibility category: susceptible

## Cc1cc(-c2ccccc2)c(C(=O)C(=O)Nc2ccc(N3CCN(c4ncc(F)cn4)CC3)cc2)n1C [olorofim]
[4]
  MIC: 0.008 to 0.03 µg/mL (≈ 0.016 to 0.0602 µM)
A. fumigatus biofilm; added prior to adhesion (t0) and right after adhesion (t4), compared to non-treated control
  biofilm reduction: up to 96%
A. fumigatus biofilm; t24 & t48
  effect on mature biofilm: did not show an effect

## CN(C/C=C/C#CC(C)(C)C)Cc1cccc2ccccc12 [terbinafine]
Dermatophyte strains; T. mentagrophytes ITS type VIII (T. indotineae), MIC ≥0.2 µg/mL counts as resistant
  in vitro resistance: In vitro resistance
Dermatophyte strains; few strains, conspicuous but not resistant
  MIC: 0.1 µg/mL (≈ 0.343 µM)
T. rubrum
  MIC: under 0.25 µg/µL
[5]
  MIC: 0.0156 µg/mL (≈ 0.0535 µM)
T. indotineae
  MIC: under 0.25 µg/µL
Trichophyton spp.; for high-level resistant isolates
  optimal agar concentration preventing growth of WT isolates: 0.125 mg/L
Trichophyton spp.; for low-level resistant isolates
  optimal agar concentration preventing growth of WT isolates: 0.01 mg/L
T. mentagrophytes [6]; 9/24
  strains with elevated MICs: 37.5%
T. mentagrophytes [6]; Trichophyton mentagrophytes, read-out: MIC of strains with elevated MICs
  MIC: 0.25 to 8 µg/mL
[7]
  isolates less susceptible by microdilution: 2.44%
[7]; Trichophyton interdigitale
  MIC: 1 to 2 µg/mL (≈ 3.43 to 6.86 µM)
[8]
  terbinafine resistance: 1%
[9]; [16]
  MIC range, drug alone: 2 to 64 µg/mL
  MIC: 11.9 µg/mL
[9]; [17]
  MIC range, drug alone: 0.03125 to 0.5 µg/mL
  MIC: 0.12 µg/mL
[9]; resistant isolates
  FICI of isolates exhibiting synergy: 0.032 to 0.3125
  isolates with synergistic interactions: 4/7
[9]; susceptible isolates
  FICI of isolates exhibiting synergy: 0.3125 to 0.5
  isolates with synergistic interactions: 4/9
[10]
  isolates classified as resistant-like: 39
[10]; read-out: MIC of resistant-like isolates
  MIC: 4 to 256 µg/mL
T. mentagrophytes [11]
  MIC: 0.25 to 8 µg/mL (≈ 0.858 to 27.5 µM)
[12]
  MIC: 0.03 to 0.06 µg/mL
[13]; inhibition of biofilm formation, read-out: mean concentrations of IC50
  IC50: 2.42 µg/mL (≈ 8.3 µM)
[13]; tested at 2–32 μg/mL
  samples with IC50 in concentration <2: 70%
[14]
  resistant isolates: 30–70%

## Milbemycin oxim A3
CDR1
  R6G efflux phenotype: mimicked efflux phenotypes of cdr1∆ mutants

## tocilizumab: tocilizumab received by COVID-19 ICU patients
[15]
  hazard ratio for CAPA: 2.45
